The values that follow come from patent US11739100B2, “2,3-dihydro-1h-imidazo{1,2-a}pyrimidin-5-one and this 1,2,3,4-tetrahydropyrimido{1,2-a}pyrimidin-6-one derivatives comprising a substituted morpholine, preparation thereof and pharmaceutical use thereof” (SANOFI, priority 2012, dated 2023).

In the test the target is T1, recombinant Vps34 (Homo sapiens, UniProt Q8NEB9).
T1 construct: purchased Invitrogen PV5126
The test can be described thus: Phosphorylation of phosphatidylinositol (PI) by Vps34 in vitro, ADP detected by TR-FRET (HTRF Transcreener ADP). The settings on record: 10 μM ATP, 55 μg/ml PI, approximately 3 nM Vps34, 1 hour at ambient temperature; absolute IC50, mean of two independent experiments; read-out: IC50 activity range. In kind it is biochemical.

SMILES strings stand for the structures.

T1 sequence (Q8NEB9 whole entry): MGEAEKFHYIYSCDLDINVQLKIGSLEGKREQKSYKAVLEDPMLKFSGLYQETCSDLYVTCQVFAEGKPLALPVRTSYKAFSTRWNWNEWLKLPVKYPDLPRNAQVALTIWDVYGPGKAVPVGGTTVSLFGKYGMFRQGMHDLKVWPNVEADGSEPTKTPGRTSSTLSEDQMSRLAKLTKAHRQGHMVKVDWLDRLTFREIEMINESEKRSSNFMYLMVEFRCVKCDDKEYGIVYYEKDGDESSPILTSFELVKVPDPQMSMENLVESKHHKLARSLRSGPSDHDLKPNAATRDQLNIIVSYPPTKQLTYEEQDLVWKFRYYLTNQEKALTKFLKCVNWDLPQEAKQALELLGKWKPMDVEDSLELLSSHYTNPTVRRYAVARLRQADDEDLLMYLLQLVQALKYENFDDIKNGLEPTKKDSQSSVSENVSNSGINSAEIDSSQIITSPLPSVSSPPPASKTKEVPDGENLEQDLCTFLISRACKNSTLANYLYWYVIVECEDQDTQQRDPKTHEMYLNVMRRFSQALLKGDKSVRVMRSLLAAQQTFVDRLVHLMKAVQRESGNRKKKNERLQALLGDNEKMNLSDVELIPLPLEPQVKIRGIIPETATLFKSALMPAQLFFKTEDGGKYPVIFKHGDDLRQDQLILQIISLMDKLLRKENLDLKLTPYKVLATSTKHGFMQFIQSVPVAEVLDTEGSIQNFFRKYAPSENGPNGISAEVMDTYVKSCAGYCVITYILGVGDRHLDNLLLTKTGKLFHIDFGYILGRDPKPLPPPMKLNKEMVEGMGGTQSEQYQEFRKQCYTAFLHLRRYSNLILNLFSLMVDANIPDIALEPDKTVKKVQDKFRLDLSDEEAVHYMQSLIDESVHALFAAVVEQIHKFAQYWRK

Usually IC50 stands for the concentration that inhibits the measured activity by half. Take `C[C@@H]1COCCN1c1cc(=O)n2c(n1)N(C/C(=N\O)C1CC1)[C@H](C(F)(F)F)CC2` (single isomer, unassigned) [Example 304]: the IC50 is under 10 nM.
As for `CC1CN(c2cc(=O)n3c(n2)N(CC(=O)c2ccccn2)[C@H](C(F)(F)F)CC3)CCO1` (single isomer, unassigned) [Example 175], the figure is over 100 nM.
As for `C[C@@H]1COCCN1c1cc(=O)n2c(n1)N(CC(=O)C1CCOCC1)[C@H](C(F)(F)F)CC2` [Example 245, (S)-2-((R)-3-Methyl-morpholin-4-yl)-9-[2-oxo-2-(tetrahydro-pyran-4-yl)ethyl]-8-trifluoromethyl-6,7,8,9-tetrahydro-pyrimido[1,2-a]-pyrimidin-4-one], the figure is under 10 nM; as for `C[C@@H]1COCCN1c1cc(=O)n2c(n1)N(Cc1cnco1)[C@H](C(F)(F)F)CC2` [Example 91, (S)-2-((R)-3-Methyl-morpholin-4-yl)-9-oxazol-5-ylmethyl-8-trifluoromethyl-6,7,8,9-tetrahydro-pyrimido[1,2-a]-pyrimidin-4-one], under 10 nM.
To `CC(C)CCC(=O)CN1c2nc(N3CCOC[C@H]3C)cc(=O)n2CC[C@H]1C(F)(F)F` [Example 290, (S)-2-((R)-3-Methyl-morpholin-4-yl)-9-(5-methyl-2-oxo-hexyl)-8-trifluoromethyl-6,7,8,9-tetrahydro-pyrimido[1,2-a]-pyrimidin-4-one] belongs under 10 nM.
`CC1CN(c2cc(=O)n3c(n2)N(CC(=O)c2ccccn2)[C@H](C(F)(F)F)CC3)CCO1` (single isomer, unassigned) [Example 174]: the IC50 is 10 to 100 nM.
As for `C[C@@H]1COCCN1c1cc(=O)n2c(n1)N(CC(O)c1ccccn1)[C@H](C(F)(F)F)CC2` (stereo partly drawn) [Example 213, (S)-9-(2-Hydroxy-2-pyridin-2-ylethyl)-2-((R)-3-methyl-morpholin-4-yl)-8-trifluoromethyl-6,7,8,9-tetrahydro-pyrimido[1,2-a]-pyrimidin-4-one], the figure is under 10 nM; as for `C[C@@H]1COCCN1c1cc(=O)n2c(n1)N(CC(=O)C1(C)CCCC1)[C@H](C(F)(F)F)CC2` [Example 253, (S)-9-[2-(1-Methyl-cyclopentyl)-2-oxo-ethyl]-2-((R)-3-methyl-morpholin-4-yl)-8-trifluoromethyl-6,7,8,9-tetrahydro-pyrimido[1,2-a]-pyrimidin-4-one], under 10 nM; as for `Cc1nc(CN2c3nc(N4CCOC[C@H]4C)c(F)c(=O)n3C[C@@]2(C)C(F)(F)F)no1` [Example 30, (S)-6-Fluoro-2-methyl-7-((R)-3-methyl-morpholin-4-yl)-1-(5-methyl-[1,2,4]oxadiazol-3-yl-methyl)-2-trifluoromethyl-2,3-dihydro-1H-imidazo[1,2-a]-pyrimidin-5-one], under 10 nM.
As for `C[C@@H]1COCCN1c1cc(=O)n2c(n1)N(CC(=O)C1CCCN1C(=O)OC(C)(C)C)[C@H](C(F)(F)F)CC2` (stereo partly drawn) [Example 261, 2-{2-[(S)-8-((R)-3-Methylmorpholin-4-yl)-6-oxo-2-trifluoromethyl-3,4-dihydro-2H,6H-pyrimido[1,2-a]-pyrimidin-1-yl]acetyl}-pyrrolidine-1-carboxylic acid tert-butyl ester], the IC50 fell in the range of 10 to 100 nM.
To `C[C@@H]1COCCN1c1cc(=O)n2c(n1)N(c1ccc(C3CCC3)nc1)[C@H](C(F)(F)F)CC2` [Example 88, (S)-9-(6-Cyclobutyl-pyridin-3-yl)-2-((R)-3-methylmorpholin-4-yl)-8-trifluoromethyl-6,7,8,9-tetrahydro-pyrimido[1,2-a]-pyrimidin-4-one] belongs under 10 nM; to `CC(C)Oc1ccc(N2c3nc(N4CCOC[C@H]4C)cc(=O)n3CC[C@H]2C(F)(F)F)cn1` [Example 85, (S)-9-(6-Isopropoxy-pyridin-3-yl)-2-((R)-3-methylmorpholin-4-yl)-8-trifluoromethyl-6,7,8,9-tetrahydro-pyrimido[1,2-a]-pyrimidin-4-one], under 10 nM; to `Cc1nc(CN2CC[C@H](C(F)(F)F)n3c2nc(N2CCOC[C@H]2C)cc3=O)no1` [Example 27, (R)-2-((R)-3-Methyl-morpholin-4-yl)-9-(5-methyl-[1,2,4]oxadiazol-3-yl-methyl)-6-trifluoromethyl-6,7,8,9-tetrahydro-pyrimido[1,2-a]-pyrimidin-4-one], under 10 nM.
To `C[C@@H]1COCCN1c1cc(=O)n2c(n1)N(Cc1ncco1)[C@](C)(C(F)(F)F)CC2` [Example 239, (S)-8-Methyl-2-((R)-3-methylmorpholin-4-yl)-9-oxazol-2-ylmethyl-8-trifluoromethyl-6,7,8,9-tetrahydro-pyrimido[1,2-a]-pyrimidin-4-one] belongs under 10 nM; to `C[C@H]1COCCN1c1nc2n(c(=O)c1F)CC[C@@H](C(F)(F)F)N2CC(=O)C1CC1` [Example 321, (S)-9-(2-Cyclopropyl-2-oxoethyl)-3-fluoro-2-((S)-3-methyl-morpholin-4-yl)-8-trifluoromethyl-6,7,8,9-tetrahydropyrimido-[1,2-a]pyrimidin-4-one], 10 to 100 nM; to `C[C@@H]1COCCN1c1cc(C(=O)CN2c3nc(N4CCOC[C@H]4C)cc(=O)n3CC[C@H]2C(F)(F)F)ccn1` [Example 303, (S)-2-((R)-3-Methyl-morpholin-4-yl)-9-{2-[2-((R)-3-methyl-morpholin-4-yl)pyridin-4-yl]-2-oxoethyl}-8-trifluoromethyl-6,7,8,9-tetrahydropyrimido[1,2-a]pyrimidin-4-one], under 10 nM.
To `Cc1nocc1CN1CC[C@H](C(F)(F)F)n2c1nc(N1CCOC[C@H]1C)cc2=O` [Example 143, (R)-9-(3-Methyl-isoxazol-4-ylmethyl)-2-((R)-3-methyl-morpholin-4-yl)-6-trifluoromethyl-6,7,8,9-tetrahydro-pyrimido[1,2-a]-pyrimidin-4-one] belongs under 10 nM.
On to `Cc1nocc1CN1c2nc(N3CCOC[C@H]3C)cc(=O)n2CC[C@H]1C(F)(F)F` [Example 12, (S)-9-(3-Methyl-isoxazol-4-ylmethyl)-2-((R)-3-methyl-morpholin-4-yl)-8-trifluoromethyl-6,7,8,9-tetrahydro-pyrimido[1,2-a]-pyrimidin-4-one], for which the concentration for half-maximal inhibition (IC50) was under 10 nM.
On to `C[C@@H]1COCCN1c1cc(=O)n2c(n1)N(CC(=O)C1CC1)[C@H](C(F)(F)F)CC2` [Example 241, (S)-9-(2-Cyclopropyl-2-oxoethyl)-2-((R)-3-methylmorpholin-4-yl)-8-trifluoromethyl-6,7,8,9-tetrahydro-pyrimido[1,2-a]-pyrimidin-4-one], for which the 50% inhibitory concentration (IC50) was under 10 nM.
To `CC1COCC(C)N1c1cc(=O)n2c(n1)N(CC(=O)c1ccccc1)[C@H](C(F)(F)F)CC2` (stereo in doubt) [Example 153, (S)-2-((3S,5S)-3,5-Dimethylmorpholin-4-yl)-9-(2-oxo-2-phenyl-ethyl)-8-trifluoromethyl-6,7,8,9-tetrahydro-pyrimido[1,2-a]-pyrimidin-4-one] belongs under 10 nM; to `C[C@@H]1COCCN1c1cc(=O)n2c(n1)N(Cc1cnc(Cl)s1)[C@H](C(F)(F)F)CC2` [Example 34, (S)-9-(2-Chloro-thiazol-5-ylmethyl)-2-((R)-3-methyl-morpholin-4-yl)-8-trifluoromethyl-6,7,8,9-tetrahydro-pyrimido[1,2-a]-pyrimidin-4-one], 10 to 100 nM.
